According to PubChem BioAssay AID248 (DTP/NCI, 2004):
Values joined by “and” are separate entries in the source; they are usually repeats but may differ in a detail not shown here. Equal entries are not always repeated. Toxic doses and inconclusive results are not listed. Numbered stars: 1 amine (or outer) side, 2 acyl side, 3 side chain; on linkers, the order of the positions; unused ones are H or OH. Bridge positions count the residues as written; N and C are the ends. Square brackets hold non-standard residues; d marks the D form. Peptide text beside a SMILES is read from it. * marks the point of attachment. X3 = CC(C)C(C)C(C(=O)[*:2])N(C)[*:1]; Picolinoyl(3-OH) = O=C(c1ncccc1O)*; NMePhg = CN[CH](C(=O)O)c1ccccc1; Hyp = O=C(O)[CH]1C[CH](O)CN1; Sar = CNCC(=O)O

Test system: L1210 leukemia ip in BDF1 mice, survival T/C
Test: NCI In Vivo Anticancer Drug Screen. Data for tumor model L1210 Leukemia (intraperitoneal) in B6D2F1 (BDF1) mice
Conditions: endpoint: mean survival time, higher = longer survival
Method in brief: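 Ratio derived from survival: compound-dosed mice over vehicle-dosed mice, all bearing a transplantable tumor.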

[1] = dose: 100.0 mg/kg/injection, schedule: Q04DX003 (ip), vehicle: gum acacia
[2] = dose: 200.0 mg/kg/injection, schedule: Q04DX003 (ip), vehicle: gum acacia
[3] = dose: 100.0 mg/kg/injection, schedule: Q04DX003 (ip), vehicle: saline
[4] = dose: 200.0 mg/kg/injection, schedule: Q04DX003 (ip), vehicle: saline
[5] = dose: 400.0 mg/kg/injection, schedule: Q04DX003 (ip), vehicle: saline
[6] = dose: 100.0 mg/kg/injection, schedule: Q04DX002 (ip), vehicle: Klucel (hydroxypropylcellulose) (HPC)
[7] = dose: 200.0 mg/kg/injection, schedule: Q04DX002 (ip), vehicle: Klucel (hydroxypropylcellulose) (HPC)
[8] = dose: 400.0 mg/kg/injection, schedule: Q04DX002 (ip), vehicle: Klucel (hydroxypropylcellulose) (HPC)
[9] = dose: 100.0 mg/kg/injection, schedule: Q04DX003 (ip), vehicle: Klucel (hydroxypropylcellulose) (HPC)
[10] = dose: 200.0 mg/kg/injection, schedule: Q04DX003 (ip), vehicle: Klucel (hydroxypropylcellulose) (HPC)
[11] = dose: 400.0 mg/kg/injection, schedule: Q04DX003 (ip), vehicle: Klucel (hydroxypropylcellulose) (HPC)
[12] = dose: 100.0 mg/kg/injection, schedule: Q01DX009 (ip), vehicle: Klucel (hydroxypropylcellulose) (HPC)
[13] = dose: 200.0 mg/kg/injection, schedule: Q01DX009 (ip), vehicle: Klucel (hydroxypropylcellulose) (HPC)
[14] = dose: 100.0 mg/kg/injection, schedule: Q01DX001 (ip), vehicle: carboxymethylcellulose (CMC)
[15] = dose: 200.0 mg/kg/injection, schedule: Q01DX001 (ip), vehicle: carboxymethylcellulose (CMC)
[16] = dose: 400.0 mg/kg/injection, schedule: Q01DX001 (ip), vehicle: carboxymethylcellulose (CMC)

COc1cc(C(=O)NOCc2cc3c(cc2Cl)OCO3)cc(OC)c1OC
T/C (dose: 200.0 mg/kg/injection, schedule: Q04DX003 (ip), vehicle: saline sonified): 92 % of control
T/C (dose: 400.0 mg/kg/injection, schedule: Q04DX003 (ip), vehicle: saline sonified): 90 % of control

COC(=O)c1cc(=O)nc2n1C1OC(CO)C(O)C1O2 (stereo not drawn)
T/C (dose: 100.0 mg/kg/injection, schedule: Q01DX001 (ip), vehicle: saline): 95 % of control
T/C (dose: 200.0 mg/kg/injection, schedule: Q01DX001 (ip), vehicle: saline): 101 % of control
T/C (dose: 400.0 mg/kg/injection, schedule: Q01DX001 (ip), vehicle: saline): 93 % of control

Nc1c(C(=O)O)ccc2c1C(=O)c1ccccc1C2=O
T/C (dose: 25.0 mg/kg/injection, schedule: Q04DX003 (ip), vehicle: gum acacia): 103 % of control
T/C (dose: 50.0 mg/kg/injection, schedule: Q04DX003 (ip), vehicle: gum acacia): 100 % of control
T/C [1]: 103 % of control and 108 % of control
T/C [2]: 97 % of control

O=C1C=C(Nc2cccc(O)c2)c2ccccc2C1=O
T/C [3]: 94 % of control
T/C [4]: 97 % of control
T/C [5]: 89 % of control

CC12CC3(C)CC(Cl)(C1)CC(Cl)(C2)C3
T/C [6]: 90 % of control
T/C [7]: 102 % of control
T/C [8]: 119 % of control

Cc1ccccc1OC(F)(F)C(F)Cl (stereo not drawn)
T/C (dose: 100.0 mg/kg/injection, schedule: Q01DX009 (ip), vehicle: saline with Tween-80): 103 % of control
T/C (dose: 100.0 mg/kg/injection, schedule: Q04DX003 (ip), vehicle: saline with Tween-80): 96 % of control
T/C (dose: 200.0 mg/kg/injection, schedule: Q01DX009 (ip), vehicle: saline with Tween-80): 91 % of control
T/C (dose: 200.0 mg/kg/injection, schedule: Q04DX003 (ip), vehicle: saline with Tween-80): 94 % of control
T/C (dose: 400.0 mg/kg/injection, schedule: Q01DX009 (ip), vehicle: saline with Tween-80): 86 % of control
T/C (dose: 400.0 mg/kg/injection, schedule: Q04DX003 (ip), vehicle: saline with Tween-80): 96 % of control

Cc1ccc(-c2ccc(C)cc2)cc1
T/C [9]: 98 % of control
T/C [10]: 95 % of control
T/C [11]: 98 % of control

CC(C)CC1NC(=O)C(NC(=O)c2ncccc2O)C(C)OC(=O)C(c2ccccc2)N(C)C(=O)C(C)NC(=O)C(C(C)C(C)C)N(C)C(=O)CN(C)C(=O)C2CC(O)CN2C1=O (stereo not drawn) ({Picolinoyl(3-OH)}-TL[Hyp][Sar][X3]A[NMePhg]; ester 1-C; configuration not given here)
T/C (dose: 5.3 mg/kg/injection, schedule: Q01DX Z (ip), vehicle: saline): 100 % of control
T/C (dose: 8.0 mg/kg/injection, schedule: Q01DX Z (ip), vehicle: saline): 100 % of control
T/C (dose: 12.0 mg/kg/injection, schedule: Q01DX Z (ip), vehicle: saline): 103 % of control
T/C (dose: 18.0 mg/kg/injection, schedule: Q01DX Z (ip), vehicle: saline): 103 % of control and 109 % of control
T/C (dose: 36.0 mg/kg/injection, schedule: Q01DX Z (ip), vehicle: saline): 97 % of control
T/C (dose: 72.0 mg/kg/injection, schedule: Q01DX Z (ip), vehicle: saline): 103 % of control
T/C (dose: 144.0 mg/kg/injection, schedule: Q01DX Z (ip), vehicle: saline): 106 % of control

C=C(C)COC(OCC(=C)C)C(C)C
T/C [12]: 96 % of control
T/C [6]: 102 % of control
T/C [13]: 89 % of control
T/C [7]: 109 % of control
T/C [8]: 112 % of control

CC(=O)Nc1c(Br)cc2c(c1Br)C(=O)c1cc(Br)ccc1-2
T/C [14]: 100 % of control
T/C [15]: 100 % of control
T/C [16]: 100 % of control

COc1cccc2c1C(=O)c1c(O)c3c(c(O)c1C2=O)C[C@@](O)(C(=O)COC(=O)c1cccnc1)C[C@@H]3OC1CC(N)C(O)C(C)O1 (stereo partly drawn)
T/C (dose: 1.6 mg/kg/injection, schedule: Q01DX009 (ip), vehicle: saline): 153 % of control
T/C (dose: 2.4 mg/kg/injection, schedule: Q01DX009 (ip), vehicle: saline): 153 % of control

CN(CC1CCCO1)C(=O)Nc1ccc(Cl)cc1 (stereo not drawn)
T/C (dose: 100.0 mg/kg/injection, schedule: Q01DX009 (ip), vehicle: carboxymethylcellulose (CMC)): 107 % of control
T/C (dose: 200.0 mg/kg/injection, schedule: Q01DX009 (ip), vehicle: carboxymethylcellulose (CMC)): 96 % of control
T/C (dose: 400.0 mg/kg/injection, schedule: Q01DX009 (ip), vehicle: carboxymethylcellulose (CMC)): 104 % of control

Brc1ccc(-c2csc(Nc3nc(-c4ccc(Br)cc4)cs3)n2)cc1
T/C [14]: 102 % of control
T/C [15]: 98 % of control
T/C (dose: 250.0 mg/kg/injection, schedule: Q01DX015 (ip), vehicle: carboxymethylcellulose (CMC)): 100 % of control
T/C [16]: 107 % of control
T/C (dose: 500.0 mg/kg/injection, schedule: Q01DX015 (ip), vehicle: carboxymethylcellulose (CMC)): 100 % of control
T/C (dose: 750.0 mg/kg/injection, schedule: Q01DX015 (ip), vehicle: carboxymethylcellulose (CMC)): 113 % of control
T/C (dose: 1000.0 mg/kg/injection, schedule: Q01DX015 (ip), vehicle: carboxymethylcellulose (CMC)): 100 % of control

CO/N=C/c1ccc([N+](=O)[O-])s1
T/C [3]: 106 % of control
T/C [4]: 95 % of control
T/C [5]: 98 % of control

O=C(O)c1cccc(CBr)c1CBr
T/C (dose: 6.25 mg/kg/injection, schedule: Q01DX001 (ip), vehicle: saline with Tween-80): 97 % of control
T/C (dose: 6.25 mg/kg/injection, schedule: Q01DX009 (ip), vehicle: saline with Tween-80): 93 % of control
T/C (dose: 12.5 mg/kg/injection, schedule: Q01DX001 (ip), vehicle: saline with Tween-80): 96 % of control
T/C (dose: 12.5 mg/kg/injection, schedule: Q01DX009 (ip), vehicle: saline with Tween-80): 96 % of control
T/C (dose: 25.0 mg/kg/injection, schedule: Q01DX001 (ip), vehicle: saline with Tween-80): 100 % of control

FC(F)(F)c1ccc(N2CCCCC2)cc1
T/C (dose: 75.0 mg/kg/injection, schedule: Q04DX002 (ip), vehicle: saline): 103 % of control
T/C (dose: 150.0 mg/kg/injection, schedule: Q04DX002 (ip), vehicle: saline): 95 % of control
T/C (dose: 300.0 mg/kg/injection, schedule: Q04DX002 (ip), vehicle: saline): 95 % of control

Cc1nc2[nH][nH]c(=O)c2nc1C
T/C (dose: 50.0 mg/kg/injection, schedule: Q01DX009 (ip), vehicle: Klucel (hydroxypropylcellulose) (HPC)): 94 % of control
T/C [12]: 100 % of control
T/C [9]: 97 % of control
T/C [13]: 94 % of control
T/C [10]: 105 % of control
T/C [11]: 102 % of control

COc1ccc(NC(=O)Nc2cccc(C)c2C)cc1
T/C (dose: 100.0 mg/kg/injection, schedule: Q01DX009 (ip), vehicle: gum acacia): 96 % of control
T/C [1]: 99 % of control
T/C (dose: 200.0 mg/kg/injection, schedule: Q01DX009 (ip), vehicle: gum acacia): 97 % of control
T/C [2]: 91 % of control
T/C (dose: 400.0 mg/kg/injection, schedule: Q01DX009 (ip), vehicle: gum acacia): 94 % of control
T/C (dose: 400.0 mg/kg/injection, schedule: Q04DX003 (ip), vehicle: gum acacia): 89 % of control

O=C1C(Cl)=C(N2CC2)C(=O)C(Cl)=C1N1CC1
T/C (dose: 0.31 mg/kg/injection, schedule: Q01DX009 (ip), vehicle: alcohol): 106 % of control
T/C (dose: 0.62 mg/kg/injection, schedule: Q01DX009 (ip), vehicle: alcohol): 112 % of control
T/C (dose: 1.25 mg/kg/injection, schedule: Q01DX009 (ip), vehicle: alcohol): 106 % of control
T/C (dose: 1.25 mg/kg/injection, schedule: Q01DX009 (ip), vehicle: saline): 113 % of control
T/C (dose: 2.5 mg/kg/injection, schedule: Q01DX009 (ip), vehicle: alcohol): 112 % of control
T/C (dose: 5.0 mg/kg/injection, schedule: Q01DX009 (ip), vehicle: alcohol): 118 % of control
T/C (dose: 10.0 mg/kg/injection, schedule: Q01DX009 (ip), vehicle: saline): 114 % of control

Cc1ncc(C#N)n1Cc1ccccc1
T/C [12]: 98 % of control and 101 % of control
T/C [6]: 101 % of control and 113 % of control
T/C [9]: 109 % of control
T/C [13]: 101 % of control and 103 % of control
T/C [7]: 103 % of control and 108 % of control
T/C [10]: 104 % of control
T/C (dose: 400.0 mg/kg/injection, schedule: Q01DX009 (ip), vehicle: Klucel (hydroxypropylcellulose) (HPC)): 101 % of control
T/C [8]: 103 % of control and 109 % of control
T/C [11]: 111 % of control

Cc1cc(SCC(=O)O)sc1C
T/C [6]: 92 % of control
T/C [7]: 107 % of control
T/C [8]: 107 % of control
